Measured values taken from patent US5633016A, “Combination chemotherapy” (SmithKline Beecham Corporation, priority 1995, dated 1997).
Where two headings read alike, the source gives them in different places.

Experiments:
[1] = in words; cited from earlier work
[2] = format: physicochemical; conditions: plastic bags, room temperature
Protocol: Stability - Shelf life surveillance of the intact vials is ongoing. Because the single-use lyophilized dosage form contains no antibacterial preservatives, it is advised that the reconstituted solution be discarded eight hours after initial entry into the vial. Further dilutions of the reconstituted solution to concentrations of 0.02 mg/ml and 0.1 mg. ml in 5% Dextrose Injection, USP, ("D5W") or 0.9% Sodium Chloride Injection, USP, ("NS") in plastic bags stored at room temperature yielded the following stability results:
Percentage of Initial Topotecan Remaining in Solution

[3] = format: physicochemical; conditions: hang-bag, 24 hours
Protocol: Topotecan diluted in saline (10 ug/ml or 500 ug/ml) or dextrose (6.7 ug/ml or 330 ug/ml) is stable in a hang-bag for 24 hours with at least 95% recovery.

[4] = test system: esophageal cancer; conditions: humans, sole chemotherapeutic agent; cited from earlier work
[5] = test system: ovarian cancer; conditions: humans, sole chemotherapeutic agent; cited from earlier work
[6] = test system: DNA topoisomerase I; conditions: background statement; cited from earlier work
[7] = test system: non-small cell lung carcinoma; conditions: humans, sole chemotherapeutic agent; cited from earlier work

## CC[C@@]1(O)C(=O)OCc2c1cc1n(c2=O)Cc2cc3c(CN(C)C)c(O)ccc3nc2-1 [Topotecan, (S)-10[(dimethylamino)methyl]-4-ethyl-4,9-dihydroxy-IH-pyrano[3',4':6,7]indolizino[1,2-b]quinolone-3,14(4H,12H)-dione]
[1]
  water solubility: water-soluble
[2]; D5W (5% Dextrose Injection, USP), 0.02 mg/ml, 0 hrs
  Percentage of Initial Topotecan Remaining in Solution: 100.00 Percentage
[2]; D5W (5% Dextrose Injection, USP), 0.1 mg/ml, 0 hrs
  Percentage of Initial Topotecan Remaining in Solution: 100.00 Percentage
[2]; NS (0.9% Sodium Chloride Injection, USP), 0.02 mg/ml, 0 hrs
  Percentage of Initial Topotecan Remaining in Solution: 100.00 Percentage
[2]; NS (0.9% Sodium Chloride Injection, USP), 0.1 mg/ml, 0 hrs
  Percentage of Initial Topotecan Remaining in Solution: 100.00 Percentage
[2]; NS (0.9% Sodium Chloride Injection, USP), 0.1 mg/ml, 6 hrs
  Percentage of Initial Topotecan Remaining in Solution: 97.71 Percentage
[2]; NS (0.9% Sodium Chloride Injection, USP), 0.1 mg/ml, 24 hrs
  Percentage of Initial Topotecan Remaining in Solution: 98.30 Percentage
[2]; NS (0.9% Sodium Chloride Injection, USP), 0.1 mg/ml, 48 hrs
  Percentage of Initial Topotecan Remaining in Solution: 98.35 Percentage
[3]; dextrose (6.7 ug/ml or 330 ug/ml)
  recovery: at least 95%
[3]; saline (10 ug/ml or 500 ug/ml)
  recovery: at least 95%
[4]
  clinical efficacy: shown clinical efficacy
[5]
  clinical efficacy: shown clinical efficacy
[6]
  inhibition of DNA topoisomerase I: specific inhibitor of DNA topoisomerase I
[7]
  clinical efficacy: shown clinical efficacy
